In ChEMBL document CHEMBL1201862, “PubChem BioAssay data set” (2004):
Active and inactive are the calls of the source.

Experiments:
[1] = molecular target: Eukaryotic translation initiation factor 4H (Homo sapiens, UniProt Q15056); assay: human eIF4H binding inhibitors, primary screen, translation initiation inhibitor project, biochemical, uHTS, fluorescence polarization (AID 2012)
[2] = molecular target: Polyadenylate-binding protein 1 (Homo sapiens, UniProt P11940); assay: PABP poly(A) RNA binding inhibitors, primary screen, biochemical, fluorescence polarization, uHTS (AID 2014)
Sequence of Polyadenylate-binding protein 1 (P11940 whole entry): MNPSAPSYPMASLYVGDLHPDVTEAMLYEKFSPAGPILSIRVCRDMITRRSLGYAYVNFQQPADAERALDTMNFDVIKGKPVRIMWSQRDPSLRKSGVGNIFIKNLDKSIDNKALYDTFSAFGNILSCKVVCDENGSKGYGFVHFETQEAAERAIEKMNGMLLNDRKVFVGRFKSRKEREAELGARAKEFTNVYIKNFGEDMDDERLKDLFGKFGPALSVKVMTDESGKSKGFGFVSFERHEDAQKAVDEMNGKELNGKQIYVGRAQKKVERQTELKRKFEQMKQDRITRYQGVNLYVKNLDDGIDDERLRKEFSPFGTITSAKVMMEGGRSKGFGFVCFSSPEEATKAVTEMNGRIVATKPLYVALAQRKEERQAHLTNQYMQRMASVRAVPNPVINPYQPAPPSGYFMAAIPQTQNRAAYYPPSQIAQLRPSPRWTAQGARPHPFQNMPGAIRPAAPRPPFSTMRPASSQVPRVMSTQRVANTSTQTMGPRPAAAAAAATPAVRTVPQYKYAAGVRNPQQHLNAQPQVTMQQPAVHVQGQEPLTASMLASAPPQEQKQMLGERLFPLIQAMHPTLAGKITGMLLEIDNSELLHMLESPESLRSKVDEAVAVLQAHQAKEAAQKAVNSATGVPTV

Aspartyl aminopeptidase = Aspartyl aminopeptidase (Plasmodium falciparum 3D7, UniProt Q8I2J3)
Procathepsin L = Procathepsin L (Homo sapiens, UniProt P07711)
Sequence of Procathepsin L (P07711 whole entry): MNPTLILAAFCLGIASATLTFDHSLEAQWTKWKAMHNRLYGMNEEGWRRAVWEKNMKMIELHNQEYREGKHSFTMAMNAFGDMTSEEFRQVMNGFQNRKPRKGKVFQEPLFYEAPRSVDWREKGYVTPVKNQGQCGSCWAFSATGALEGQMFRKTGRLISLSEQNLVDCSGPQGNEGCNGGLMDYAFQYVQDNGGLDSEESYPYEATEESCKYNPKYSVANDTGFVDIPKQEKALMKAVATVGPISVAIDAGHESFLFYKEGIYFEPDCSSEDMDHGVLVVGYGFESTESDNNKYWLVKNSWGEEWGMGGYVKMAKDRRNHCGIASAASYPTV

[3] = molecular target: T1, Heat shock factor protein 1 (Mus musculus, UniProt P38532); assay: inhibition of MG132-induced HSE-luciferase signal, confirmation, cell-based, NIH3T3, luminescence, dose retest (AID 2382); type: functional;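 further: NIH3T3 fibroblasts with HSF1-driven luciferase reporter stressed by proteasome inhibitor MG132; luminescence from HSF1-driven luciferase expression after 8 hours of MG132 stress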
T1 sequence (P38532 whole entry): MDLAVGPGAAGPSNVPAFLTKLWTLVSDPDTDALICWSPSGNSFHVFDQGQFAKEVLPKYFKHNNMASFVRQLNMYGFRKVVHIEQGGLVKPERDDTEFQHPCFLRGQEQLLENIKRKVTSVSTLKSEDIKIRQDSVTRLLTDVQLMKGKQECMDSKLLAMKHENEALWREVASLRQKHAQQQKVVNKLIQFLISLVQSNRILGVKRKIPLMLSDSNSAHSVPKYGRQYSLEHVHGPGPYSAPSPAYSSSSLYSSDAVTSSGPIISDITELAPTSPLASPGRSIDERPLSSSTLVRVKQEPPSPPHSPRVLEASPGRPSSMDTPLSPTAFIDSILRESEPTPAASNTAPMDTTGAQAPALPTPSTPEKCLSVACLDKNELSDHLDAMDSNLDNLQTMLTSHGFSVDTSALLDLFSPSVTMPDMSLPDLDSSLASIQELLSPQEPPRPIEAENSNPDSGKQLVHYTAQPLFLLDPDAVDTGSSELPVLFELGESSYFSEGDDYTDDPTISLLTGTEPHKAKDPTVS

Exodeoxyribonuclease V = molecular target: T2, Exodeoxyribonuclease V (Escherichia coli (strain K12), UniProt P04993+P07648+P08394); assay: E. coli RecBCD inhibitors, dose response, counter-screen for AddAB inhibitor project, absorbance, V66 E. coli, mutant T4 phage (AID 492957); type: functional, cell-based, Escherichia coli str. K-12 substr. MG1655
T2 sequence (P04993 whole entry): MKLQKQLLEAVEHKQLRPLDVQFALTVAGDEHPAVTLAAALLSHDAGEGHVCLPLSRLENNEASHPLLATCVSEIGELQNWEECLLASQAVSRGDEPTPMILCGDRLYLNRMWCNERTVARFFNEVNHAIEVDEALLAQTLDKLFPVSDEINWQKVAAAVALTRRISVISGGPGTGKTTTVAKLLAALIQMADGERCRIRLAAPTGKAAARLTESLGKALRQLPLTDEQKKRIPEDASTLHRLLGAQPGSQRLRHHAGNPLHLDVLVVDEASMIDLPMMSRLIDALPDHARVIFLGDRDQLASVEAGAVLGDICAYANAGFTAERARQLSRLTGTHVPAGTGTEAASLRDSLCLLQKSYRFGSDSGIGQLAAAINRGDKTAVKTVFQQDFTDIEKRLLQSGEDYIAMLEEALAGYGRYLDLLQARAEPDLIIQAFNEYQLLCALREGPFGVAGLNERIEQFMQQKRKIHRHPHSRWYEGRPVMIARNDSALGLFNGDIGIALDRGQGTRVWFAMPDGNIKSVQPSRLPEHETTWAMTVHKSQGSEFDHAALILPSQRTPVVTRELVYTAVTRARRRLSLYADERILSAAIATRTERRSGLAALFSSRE
T2 sequence (P07648 whole entry): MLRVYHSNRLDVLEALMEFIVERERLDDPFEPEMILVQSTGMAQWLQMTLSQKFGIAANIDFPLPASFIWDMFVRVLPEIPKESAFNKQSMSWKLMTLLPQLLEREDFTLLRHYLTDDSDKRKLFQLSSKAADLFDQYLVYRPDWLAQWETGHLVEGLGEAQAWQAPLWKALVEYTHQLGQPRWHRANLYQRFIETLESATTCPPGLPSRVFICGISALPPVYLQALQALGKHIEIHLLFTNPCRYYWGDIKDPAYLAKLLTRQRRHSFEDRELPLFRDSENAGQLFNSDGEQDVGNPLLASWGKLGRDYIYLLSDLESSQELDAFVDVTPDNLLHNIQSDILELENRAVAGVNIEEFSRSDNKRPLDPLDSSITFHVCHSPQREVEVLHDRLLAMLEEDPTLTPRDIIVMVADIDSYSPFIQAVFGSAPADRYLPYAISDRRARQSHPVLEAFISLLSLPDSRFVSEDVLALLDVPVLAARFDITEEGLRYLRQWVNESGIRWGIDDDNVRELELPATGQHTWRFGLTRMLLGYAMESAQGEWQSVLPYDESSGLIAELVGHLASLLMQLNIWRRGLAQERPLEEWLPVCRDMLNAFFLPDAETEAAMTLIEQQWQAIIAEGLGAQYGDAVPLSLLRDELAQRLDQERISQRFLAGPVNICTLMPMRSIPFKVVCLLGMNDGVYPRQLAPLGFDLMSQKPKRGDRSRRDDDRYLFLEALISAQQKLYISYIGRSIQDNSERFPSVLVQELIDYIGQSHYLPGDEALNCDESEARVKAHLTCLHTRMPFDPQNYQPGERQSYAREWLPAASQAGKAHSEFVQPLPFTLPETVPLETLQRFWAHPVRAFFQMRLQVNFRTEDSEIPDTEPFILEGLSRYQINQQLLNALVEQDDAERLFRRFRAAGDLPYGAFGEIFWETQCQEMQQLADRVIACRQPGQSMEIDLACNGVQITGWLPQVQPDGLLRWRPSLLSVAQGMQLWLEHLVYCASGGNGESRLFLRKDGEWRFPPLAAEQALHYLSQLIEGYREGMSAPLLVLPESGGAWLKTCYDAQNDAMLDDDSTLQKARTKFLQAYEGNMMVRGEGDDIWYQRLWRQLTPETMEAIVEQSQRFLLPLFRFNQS
T2 sequence (P08394 whole entry): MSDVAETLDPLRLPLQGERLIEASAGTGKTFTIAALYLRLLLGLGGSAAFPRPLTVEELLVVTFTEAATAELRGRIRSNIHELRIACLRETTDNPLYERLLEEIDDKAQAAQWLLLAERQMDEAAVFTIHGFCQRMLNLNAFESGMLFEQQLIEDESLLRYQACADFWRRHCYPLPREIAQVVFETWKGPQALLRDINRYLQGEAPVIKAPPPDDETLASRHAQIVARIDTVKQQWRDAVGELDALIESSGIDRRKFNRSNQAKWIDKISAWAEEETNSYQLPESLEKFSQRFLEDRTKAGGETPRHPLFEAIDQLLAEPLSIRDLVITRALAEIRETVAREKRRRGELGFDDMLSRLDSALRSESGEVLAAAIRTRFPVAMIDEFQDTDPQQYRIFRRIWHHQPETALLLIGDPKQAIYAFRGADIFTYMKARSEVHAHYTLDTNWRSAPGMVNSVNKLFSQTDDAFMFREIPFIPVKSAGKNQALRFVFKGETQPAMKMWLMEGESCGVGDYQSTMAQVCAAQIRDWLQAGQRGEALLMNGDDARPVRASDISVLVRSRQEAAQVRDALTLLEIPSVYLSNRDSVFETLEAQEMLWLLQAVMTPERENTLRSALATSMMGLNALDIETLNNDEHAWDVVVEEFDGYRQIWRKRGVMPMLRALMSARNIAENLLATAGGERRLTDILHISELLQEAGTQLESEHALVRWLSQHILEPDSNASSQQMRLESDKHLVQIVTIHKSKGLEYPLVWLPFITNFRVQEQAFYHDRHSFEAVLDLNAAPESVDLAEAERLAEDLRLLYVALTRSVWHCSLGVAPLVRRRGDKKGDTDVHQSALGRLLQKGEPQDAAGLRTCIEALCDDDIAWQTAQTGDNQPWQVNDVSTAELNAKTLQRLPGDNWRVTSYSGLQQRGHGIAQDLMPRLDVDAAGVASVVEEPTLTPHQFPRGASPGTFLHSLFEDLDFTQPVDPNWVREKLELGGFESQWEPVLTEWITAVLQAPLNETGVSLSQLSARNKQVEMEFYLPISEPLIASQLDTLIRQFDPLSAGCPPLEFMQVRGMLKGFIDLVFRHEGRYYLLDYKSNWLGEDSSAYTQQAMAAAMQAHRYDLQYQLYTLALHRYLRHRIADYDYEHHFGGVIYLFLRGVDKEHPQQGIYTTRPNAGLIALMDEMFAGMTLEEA

[4] = THP-1 cell cytotoxicity, dose response, cytotoxicity control for non-replicating M. tuberculosis project (AID 489025); type: functional
[5] = Counterscreen for AddAB inhibitors: absorbance-based bacterial cell-based high throughput dose response assay for inhibitors of bacterial viability. [Related pubchem assays (depositor defined):AID435030, AID449728, AID449731, AID488942, AID488955, AID488956]; type: functional
cells = type: functional
Cytochrome P450 3A4 = Cytochrome P450 3A4 (Homo sapiens, UniProt P08684); conditions: Potency;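 further: confirmatory qHTS run detecting inhibitors and substrates of CYP3A4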
Sequence of Cytochrome P450 3A4 (P08684 whole entry): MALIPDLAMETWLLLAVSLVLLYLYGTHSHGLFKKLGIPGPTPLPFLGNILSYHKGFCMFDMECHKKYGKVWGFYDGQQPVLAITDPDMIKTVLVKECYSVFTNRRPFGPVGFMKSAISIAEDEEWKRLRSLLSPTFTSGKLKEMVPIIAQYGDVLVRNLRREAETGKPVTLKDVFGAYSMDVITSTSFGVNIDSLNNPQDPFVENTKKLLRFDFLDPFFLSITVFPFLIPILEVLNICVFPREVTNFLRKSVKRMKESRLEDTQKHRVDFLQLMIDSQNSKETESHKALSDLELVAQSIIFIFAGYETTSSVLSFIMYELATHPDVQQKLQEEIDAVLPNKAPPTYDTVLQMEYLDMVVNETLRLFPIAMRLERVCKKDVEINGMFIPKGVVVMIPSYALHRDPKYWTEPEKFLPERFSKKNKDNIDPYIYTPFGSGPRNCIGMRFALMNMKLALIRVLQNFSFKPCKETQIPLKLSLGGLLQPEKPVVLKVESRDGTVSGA

Leucine aminopeptidase = molecular target: T3, Leucine aminopeptidase (Plasmodium falciparum 3D7, UniProt Q8IL11); assay: P. falciparum M17LAP inhibitors, primary screen, biochemical, fluorogenic H-Leu-NHMec substrate, 1536-well (AID 1619); type: functional
T3 sequence (Q8IL11 whole entry): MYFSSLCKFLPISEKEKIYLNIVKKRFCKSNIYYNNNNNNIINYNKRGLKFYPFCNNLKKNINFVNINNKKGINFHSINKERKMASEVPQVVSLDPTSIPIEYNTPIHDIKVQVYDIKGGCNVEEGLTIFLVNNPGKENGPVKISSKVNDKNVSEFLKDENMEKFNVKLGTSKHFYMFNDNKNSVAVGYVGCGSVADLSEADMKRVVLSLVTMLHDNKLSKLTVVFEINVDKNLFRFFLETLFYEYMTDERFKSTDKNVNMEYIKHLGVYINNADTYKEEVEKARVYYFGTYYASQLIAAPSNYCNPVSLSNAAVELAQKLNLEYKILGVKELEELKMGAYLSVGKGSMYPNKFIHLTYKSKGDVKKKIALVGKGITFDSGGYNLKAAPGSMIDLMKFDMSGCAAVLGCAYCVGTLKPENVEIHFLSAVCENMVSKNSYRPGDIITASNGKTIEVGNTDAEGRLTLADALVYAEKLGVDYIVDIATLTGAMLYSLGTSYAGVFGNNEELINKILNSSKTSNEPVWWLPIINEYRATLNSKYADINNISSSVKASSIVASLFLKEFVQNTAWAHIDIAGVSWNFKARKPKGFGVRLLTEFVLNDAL

[6] = molecular target: Photoreceptor-specific nuclear receptor (Homo sapiens, UniProt Q9Y5X4); type: functional;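 further: potency for compounds that break the NR2E3 corepressor complex and count as activators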
Sequence of Photoreceptor-specific nuclear receptor (Q9Y5X4 whole entry): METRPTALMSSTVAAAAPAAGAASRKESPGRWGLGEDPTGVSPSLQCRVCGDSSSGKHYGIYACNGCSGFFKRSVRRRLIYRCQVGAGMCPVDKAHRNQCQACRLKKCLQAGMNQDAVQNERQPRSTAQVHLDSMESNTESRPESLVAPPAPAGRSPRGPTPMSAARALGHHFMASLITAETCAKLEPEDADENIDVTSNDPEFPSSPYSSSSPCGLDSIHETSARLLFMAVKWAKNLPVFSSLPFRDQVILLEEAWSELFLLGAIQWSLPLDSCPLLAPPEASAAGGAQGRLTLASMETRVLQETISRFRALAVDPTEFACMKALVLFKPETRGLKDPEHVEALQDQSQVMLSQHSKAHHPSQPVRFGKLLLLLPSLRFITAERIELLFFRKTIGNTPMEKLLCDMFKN

[7] = molecular target: Peroxisome proliferator-activated receptor gamma/Nuclear receptor coactivator 1 (Homo sapiens, UniProt P37231); assay: (§1) TR-FRET dose response biochemical High Throughput Screening assay for agonists of the steroid receptor coactivator 1 (SRC-1) recruitment by the peroxisome proliferator-activated receptor gamma (PPAR gamma): non-selective agonists. [Related pubchem assays (depositor defined):AID1300, AID1808, AID504735, AID631]; type: protein assay
[8] = molecular target: Peroxisome proliferator-activated receptor gamma/Nuclear receptor coactivator 3 (Homo sapiens, UniProt P37231); assay: as §1, with “3 (SRC-3)” for “1 (SRC-1)”, “assays: 1301 (Confirmation screen.), 1048 (Primary screen.)]” for “assays (depositor defined):AID1300, AID1808, AID504735, AID631]”; type: functional
[9] = molecular target: Peroxisome proliferator-activated receptor gamma/Nuclear receptor coactivator 2 (Homo sapiens, UniProt P37231); assay: TR-FRET dose response biochemical High Throughput Screening assay for agonists of the steroid receptor coactivator 2 (SRC-2) recruitment by the peroxisome proliferator-activated receptor gamma (PPAR gamma): non-selective agonists. [Related pubchem assays: 1297, 1032 ]; type: functional
Sequence of Peroxisome proliferator-activated receptor gamma/Nuclear receptor coactivator 2 (P37231 whole entry): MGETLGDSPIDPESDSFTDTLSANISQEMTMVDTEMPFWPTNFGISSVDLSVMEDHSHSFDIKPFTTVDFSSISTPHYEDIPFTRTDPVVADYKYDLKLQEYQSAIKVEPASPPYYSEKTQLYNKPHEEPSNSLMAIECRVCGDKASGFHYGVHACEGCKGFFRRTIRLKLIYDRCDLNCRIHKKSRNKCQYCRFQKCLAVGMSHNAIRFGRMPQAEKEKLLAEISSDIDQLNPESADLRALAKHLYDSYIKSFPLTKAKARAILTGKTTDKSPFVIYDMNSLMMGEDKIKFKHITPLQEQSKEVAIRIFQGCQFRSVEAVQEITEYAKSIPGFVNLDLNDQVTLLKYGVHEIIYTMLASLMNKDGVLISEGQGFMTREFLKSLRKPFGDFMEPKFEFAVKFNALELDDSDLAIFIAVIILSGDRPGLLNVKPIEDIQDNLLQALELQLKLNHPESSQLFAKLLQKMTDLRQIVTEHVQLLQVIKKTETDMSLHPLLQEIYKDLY
Sequence of Peroxisome proliferator-activated receptor gamma/Nuclear receptor coactivator 2 (Q15596 whole entry, further chain): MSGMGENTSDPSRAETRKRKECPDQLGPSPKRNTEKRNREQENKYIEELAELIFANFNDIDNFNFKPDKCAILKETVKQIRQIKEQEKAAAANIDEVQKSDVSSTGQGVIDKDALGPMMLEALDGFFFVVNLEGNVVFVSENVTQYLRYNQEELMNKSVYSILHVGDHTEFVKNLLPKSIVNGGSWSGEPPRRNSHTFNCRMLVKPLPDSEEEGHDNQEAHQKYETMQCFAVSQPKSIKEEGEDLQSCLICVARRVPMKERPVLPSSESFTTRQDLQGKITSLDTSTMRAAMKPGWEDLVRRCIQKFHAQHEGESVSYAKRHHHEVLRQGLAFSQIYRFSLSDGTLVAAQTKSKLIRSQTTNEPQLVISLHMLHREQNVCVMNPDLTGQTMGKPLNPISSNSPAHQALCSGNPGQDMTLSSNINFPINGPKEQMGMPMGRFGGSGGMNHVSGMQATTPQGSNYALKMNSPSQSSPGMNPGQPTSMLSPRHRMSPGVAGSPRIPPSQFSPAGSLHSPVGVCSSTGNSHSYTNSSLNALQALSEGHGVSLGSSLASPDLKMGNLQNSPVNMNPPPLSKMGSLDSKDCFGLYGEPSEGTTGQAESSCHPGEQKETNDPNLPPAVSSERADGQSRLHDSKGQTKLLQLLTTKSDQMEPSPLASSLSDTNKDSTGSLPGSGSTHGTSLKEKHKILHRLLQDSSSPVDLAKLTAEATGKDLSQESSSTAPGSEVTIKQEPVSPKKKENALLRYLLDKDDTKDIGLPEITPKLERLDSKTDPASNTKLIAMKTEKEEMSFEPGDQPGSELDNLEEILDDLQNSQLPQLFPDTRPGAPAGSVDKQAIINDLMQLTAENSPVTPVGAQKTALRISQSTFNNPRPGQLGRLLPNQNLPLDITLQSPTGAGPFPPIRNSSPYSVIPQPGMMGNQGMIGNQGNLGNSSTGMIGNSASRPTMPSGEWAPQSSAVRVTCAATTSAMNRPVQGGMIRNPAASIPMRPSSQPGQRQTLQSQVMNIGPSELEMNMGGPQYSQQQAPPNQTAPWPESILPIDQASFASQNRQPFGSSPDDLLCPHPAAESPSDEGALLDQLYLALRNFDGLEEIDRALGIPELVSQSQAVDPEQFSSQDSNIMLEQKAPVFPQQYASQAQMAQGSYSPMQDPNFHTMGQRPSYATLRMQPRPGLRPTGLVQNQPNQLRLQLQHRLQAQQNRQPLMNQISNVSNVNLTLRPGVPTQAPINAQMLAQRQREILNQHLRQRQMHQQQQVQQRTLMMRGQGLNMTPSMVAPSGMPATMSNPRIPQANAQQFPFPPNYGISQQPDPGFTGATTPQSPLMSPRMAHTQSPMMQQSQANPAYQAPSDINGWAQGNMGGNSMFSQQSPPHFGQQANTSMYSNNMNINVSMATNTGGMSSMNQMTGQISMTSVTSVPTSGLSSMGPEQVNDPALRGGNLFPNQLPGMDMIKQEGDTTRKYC

[10] = molecular target: Peroxisome proliferator-activated receptor gamma/Nuclear receptor corepressor 2 (Homo sapiens, UniProt P37231+Q9Y618); type: functional
Cytochrome P450 2C9 = Cytochrome P450 2C9 (Homo sapiens, UniProt P11712); conditions: Potency
[11] = molecular target: Lysosomal acid glucosylceramidase (Homo sapiens, UniProt P04062); assay: Dose response cell-based high throughput screening assay to identify enhancers of beta-glucosidase activity. [Related pubchem assays: 784 ]; type: functional
[12] = molecular target: Acyl-homoserine lactone acylase PvdQ (Pseudomonas aeruginosa (strain LESB58), UniProt Q9I194); assay: P. aeruginosa PvdQ acylase inhibitors, dose response, biochemical, fluorescence, plate reader and imaging, cherry-picks (AID 493231)
Sequence of Acyl-homoserine lactone acylase PvdQ (Q9I194 24-193 limits assumed): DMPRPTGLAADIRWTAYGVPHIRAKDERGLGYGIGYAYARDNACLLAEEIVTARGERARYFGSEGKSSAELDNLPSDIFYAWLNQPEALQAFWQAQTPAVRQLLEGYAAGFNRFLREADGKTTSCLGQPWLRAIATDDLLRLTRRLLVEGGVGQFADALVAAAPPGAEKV
Sequence of Acyl-homoserine lactone acylase PvdQ (Q9I194 217-762 limits assumed): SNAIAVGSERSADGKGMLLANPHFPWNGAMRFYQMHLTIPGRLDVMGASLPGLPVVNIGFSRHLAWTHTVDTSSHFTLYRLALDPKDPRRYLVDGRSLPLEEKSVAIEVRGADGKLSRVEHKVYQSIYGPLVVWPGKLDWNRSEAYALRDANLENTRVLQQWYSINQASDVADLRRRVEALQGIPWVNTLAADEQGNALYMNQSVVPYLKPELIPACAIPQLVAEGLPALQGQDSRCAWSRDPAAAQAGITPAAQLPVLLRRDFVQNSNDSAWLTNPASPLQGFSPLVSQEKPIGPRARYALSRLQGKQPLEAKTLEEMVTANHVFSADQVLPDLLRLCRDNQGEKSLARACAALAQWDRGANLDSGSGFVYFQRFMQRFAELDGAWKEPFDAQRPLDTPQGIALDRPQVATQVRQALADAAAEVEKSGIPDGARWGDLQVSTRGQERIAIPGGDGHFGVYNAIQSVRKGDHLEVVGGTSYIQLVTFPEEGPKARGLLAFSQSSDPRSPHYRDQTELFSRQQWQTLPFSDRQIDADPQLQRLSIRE

Cn1c(SCC(=O)NC(C)(C)C)nnc1-c1cccc(NC(=O)c2ccccc2F)c1
IC50 [1]: > 100 µM (inactive)
IC50 [2]: 7.07 µM (active)

Cc1c(C(=O)c2no[n+]([O-])c2C(=O)c2cnn(C)c2C)cnn1C
IC50 (Aspartyl aminopeptidase): 1.58 µM (active)
IC50 (Procathepsin L): > 59.6 µM (not active)
EC50 [3]: 5.9 µM (active)

NC(=NOC(=O)c1ccc(Cl)cc1)c1ncc([N+](=O)[O-])s1
IC50 (Exodeoxyribonuclease V): > 119 µM (inactive)
CC50 [4]: > 40 µM (active)
IC50 [5]: 118 µM (inactive)
IC50 (cells): 19.2 µM (active)

Nc1ccc(Cl)cc1Cl
AC50 (Cytochrome P450 3A4): 31.6 µM (inconclusive)

Cn1c(=S)[nH]c2c(c1=O)C(C)(C)Cc1ccccc1-2
IC50 (Leucine aminopeptidase): 1.9 µM (active)
IC50 [6]: > 39.8 µM (not active)
EC50 [7]: > 79.4 µM (inactive)
EC50 [8]: > 79.4 µM (not active)
EC50 [9]: > 79.4 µM (not active)
IC50 [10]: 3.98 µM (active)

C[C@]12C=CC(=O)C=C1CC[C@@H]1[C@H]3C[C@@H](O)[C@](O)(C(=O)CO)[C@]3(C)C[C@H](O)[C@]12F
AC50 (Cytochrome P450 2C9): 25.1 µM (inconclusive)

Cc1cccn2c(=O)c(/C=N/c3ccc(Cl)cc3)c(NCCO)nc12
EC50 [11]: > 50 µM (not active)

CCOC(=O)c1ccc(N2Cc3ccccc3C2)cc1O
AC50 [12]: > 100 µM (inactive)
